# Measurements as given in patent US6992078B2, “Plant extracts and alkaloids having antitussive activity” (The Chinese University of Hong Kong, priority 2002, dated 2006).
# “Also recorded” adds a separate entry of the source.
# Legend:
# [1] = molecular target: T1, GABAB receptor (Rattus norvegicus, UniProt Q9Z0U4); assay: Radiolabeled ligand binding assay, [3H]CGP 54626A; settings: 10 μM, Rat cortex
# T1 construct: Novascreen Biosciences (contract assay)
# Description: (§1) The representative Stemona alkaloid, compound A, was subjected to the following primary receptor binding assays. The standard radiolabeled ligand binding experiments were performed at the concentration of 10 μM in duplicate by Novascreen Biosciences Crop. (7170 Standard Drive, Hanover, Md. 21076, USA). The tested receptors included all currently well-known receptors involved in producing the antitussive activity, for example, [^3H]Deltorphin (δ1-opioid receptor), [^3H]Naltrindole (δ2-opioid receptor), [^3H]DAMGO (μ-opioid receptor), [^3H]U69593 (κ1-opioid receptor), […] (GABAB receptor), [^3H]8-OH-DPAT (5HT1A receptor), and […] (Dopamine D2-receptor). […] Therefore, the results obtained from both in vivo and in vitro studies confirmed that the antitussive activity of all five effective novel Stemona alkaloids and neotuberostemonine are not involved in opiate receptor pathways.
# [2] = test system: Dopamine D2-receptor; assay: Radiolabeled ligand binding assay, [3H]Glibenclamide; parameters: species or system Rat; key to Affinity: ± indicates slight but not significant inhibition on ligand binding; settings: 10 μM, Dopamine D2, Rate striatum
# Description: as §1
# [3] = molecular target: T2, κ1-opioid receptor (Cavia porcellus, UniProt P41144); assay: Radiolabeled ligand binding assay, [3H]U-69593; settings: 10 μM, Opioid κ, Guinea pig cerebellum
# T2 construct: Novascreen Biosciences (contract assay)
# Description: as §1
# [4] = test system: citric acid-induced cough; assay: Citric acid-induced cough in guinea pigs (antitussive activity); assay type: in vivo, guinea pig; settings: for cough episodes (result in words): citric acid-induced cough; for ED50 value (antitussive): comparative study compound A vs codeine (positive control), i.p.; for rank order of antitussive potency: guinea pig citric acid cough model; for % Cough Episode (Composed with Vehicle Control): mean ± SEM
# Description: In another embodiment, a method is provided for screening for a substance that inhibits coughing activity. For example, a guinea pig is challenged with 0.5 M citric acid. Those producing more than 10 cough episodes during a first citric acid challenge are selected to be sensitive to citric acid induction and are used for further antitussive tests. The number of coughs and the cough latency in the first challenge animal are recorded as the basal level control. After 48 hours of recovery, the sensitive guinea pigs are selected and are randomly divided into different group, and then pretreated with either intraperitoneal or oral administration. For the intraperitoneal administration, the administration can be of a aqueous extract (0.3-3 g/kg), a total alkaloid extract (25-150 mg/kg), an alkaloid, for example compound A (10, 30, 50, and 100 mg/kg), or compounds B, C, D, F, G, H (133 μmol/kg), for 30 min, or of an extract suspected of having antitussive activity. For the oral administration, the administration can be of compound A or E (400 μmol/kg) for 60 min, or of an extract suspected of having antitussive activity. A second citric acid exposure is then conducted. Antitussive activity is evaluated in each treated animal as the reduction of coughs and the increase of cough latency, as compared to the basal level control.
# The method previously described by Gallico et al. (1994) was adopted with the following modifications. Unrestrained guinea pigs were placed individually in a hermetically sealed transparent Perspex chamber (25 cm×12 cm×12 cm), and exposed to a nebulized aqueous solution of 0.5 M citric acid for 8 min. An ultrasonic nebulizer was used (OMRON NE-U12, Tokyo, Japan) that produced an aerosol with particles having a mass median diameter of 1˜5 μm. Approximately 0.5 ml of 0.5 M citric acid solution was nebulized per minute. During the exposure, the guinea pigs were continuously monitored by a trained observer. The episodes and latency of coughing in 8 min were detected and counted by the observer. Cough sounds were recorded concurrently and amplified via a microphone placed in the chamber. The sound waves were analyzed by a personal computer by using Cool Edit 2000 software (Syntrillium, Phenix, USA). Therefore, cough counting was performed based on both acoustic data and human observations, and in this manner the reduction or inhibition of coughing (i.e., antitussive activity) was measured.
# The guinea pigs were first challenged with 0.5 M citric acid. Those producing more than 10 cough episodes during the first citric acid challenge were selected to be sensitive to citric acid induction and were used for the further antitussive tests. The number of coughs and the cough latency in the first challenge were recorded as the basal level control. After 48 hours of recovery, the sensitive guinea pigs were selected and were randomly divided into different groups with at least four guinea pigs in each group, and then pretreated with intraperitoneal administration of the aqueous extract (0.3-3 g/kg), the total alkaloid extract (25-150 mg/kg), compound A (10, 30, 50, and 100 mg/kg), and compounds B, C, D, F, G, H (133 μmol/kg), for 30 min before the second citric acid exposure. Antitussive activity was evaluated in each treated animal as the reduction of coughs and the increase of cough latency, as compared to the basal level control. Furthermore, the same antitussive test was also performed with oral administration of compounds A and E (400 μmol/kg). In addition, as a positive control, the antitussive activity of codeine (5, 10 and 30 mg/kg, i.p.) was also determined in a parallel study.
# [5] = test system: citric acid-induced cough; assay: Effect of receptor antagonists on the antitussive activity of compound A in vivo; parameters: species or system guinea pig; settings: mean ± SEM
# Description: Further studies were conducted for the delineation of the mechanisms of antitussive activity produced by the representative Stemona alkaloid, compound A. Similarly, the sensitive animals were selected after the first citric acid challenge and allowed to recover for 24 hours. During the second challenge, animals were treated with a subcutaneous injection of different antagonists at different times prior to intraperitoneal administration of compound A (50 or 100 mg/kg). The antagonists examined included SCH 50911 (GABAB receptor antagonist) with a 40 min pretreatment at a dose of 10 mg/kg, WAY-100635 (5-HT1A receptor antagonist) with a 60 min pretreatment at a dose of 1 mg/kg, and haloperidol (Dopamine, D2 receptor antagonist) with a 45 min pretreatment at a dose of 1 mg/kg. In addition, naloxone (nonselective opioid receptor antagonist) was administered subcutaneously at a dose of 5 mg/kg at 20 min after intraperitoneal administration of compound A (30 and 100 mg/kg). The effects of these antagonists on the antitussive activity of compound A were assessed by comparison of the changes in cough episodes and cough latency between animal groups administrated with compound A alone and concurrent administration of compound A and each antagonist tested. Furthermore, in a parallel study, the same treatment with naloxone was also conducted in the animals pretreated with intraperitoneal administration of codeine (30 mg/kg) for the positive control.
# [6] = test system: all receptors examined (opioid δ1, δ2, κ, μ, GABAB, 5-HT1A, Dopamine D2); assay: In vitro receptor binding assays, summary over all receptors examined; settings: 10 μM, radiolabeled ligand binding
# Description: as §1
# [7] = molecular target: δ2-opioid receptor (Homo sapiens, UniProt P41143); assay: Radiolabeled ligand binding assay, [3H]Naltrindole; settings: 10 μM, Opioid δ2, Human recombinant
# Description: as §1
# [8] = test system: 5HT1A receptor; assay: Radiolabeled ligand binding assay, [3H]8-OH-DPAT; settings: 10 μM, Bovine hippocampus
# Description: as §1
# [9] = molecular target: T3, μ-opioid receptor (Rattus norvegicus, UniProt P33535); assay: Radiolabeled ligand binding assay, [3H]DAMGO; settings: 10 μM, Rat forebrain
# T3 construct: Novascreen Biosciences (contract assay)
# Description: as §1
# [10] = molecular target: T4, δ1-opioid receptor (Rattus norvegicus, UniProt P33533); assay: Radiolabeled ligand binding assay, [3H]Deltorphin; settings: 10 μM, Opioid δ1, Rat forebrain, [3H]Deltrophin
# T4 construct: Rat forebrain; tissue Novascreen Biosciences (contract assay); host or cells: rat forebrain
# Description: as §1
# [11] = ip, 133 μmol/kg, 30 min before second citric acid exposure, guinea pig
# [12] = po, 400 μmol/kg, 60 min before second citric acid exposure, guinea pig
# T4 sequence (P33533 whole entry): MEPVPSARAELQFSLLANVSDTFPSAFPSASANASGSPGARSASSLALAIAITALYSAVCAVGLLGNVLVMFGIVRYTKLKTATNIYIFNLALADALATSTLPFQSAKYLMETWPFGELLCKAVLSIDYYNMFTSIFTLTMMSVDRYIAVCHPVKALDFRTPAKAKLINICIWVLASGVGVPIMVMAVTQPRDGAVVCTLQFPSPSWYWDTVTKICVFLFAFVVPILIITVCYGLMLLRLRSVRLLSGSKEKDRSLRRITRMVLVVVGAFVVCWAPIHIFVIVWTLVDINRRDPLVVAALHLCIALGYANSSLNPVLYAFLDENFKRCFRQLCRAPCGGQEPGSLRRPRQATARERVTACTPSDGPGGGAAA
# T3 sequence (P33535 whole entry): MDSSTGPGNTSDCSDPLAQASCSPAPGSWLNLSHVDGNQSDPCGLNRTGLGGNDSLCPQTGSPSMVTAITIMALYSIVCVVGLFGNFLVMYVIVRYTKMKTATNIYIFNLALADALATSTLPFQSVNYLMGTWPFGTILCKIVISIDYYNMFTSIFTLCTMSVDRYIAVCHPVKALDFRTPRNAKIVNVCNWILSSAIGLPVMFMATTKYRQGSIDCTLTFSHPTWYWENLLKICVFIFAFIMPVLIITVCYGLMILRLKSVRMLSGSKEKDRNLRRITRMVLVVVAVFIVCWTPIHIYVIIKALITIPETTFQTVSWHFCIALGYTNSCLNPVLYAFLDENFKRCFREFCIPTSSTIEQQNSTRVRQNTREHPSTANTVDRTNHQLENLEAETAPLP
# T2 sequence (P41144 whole entry): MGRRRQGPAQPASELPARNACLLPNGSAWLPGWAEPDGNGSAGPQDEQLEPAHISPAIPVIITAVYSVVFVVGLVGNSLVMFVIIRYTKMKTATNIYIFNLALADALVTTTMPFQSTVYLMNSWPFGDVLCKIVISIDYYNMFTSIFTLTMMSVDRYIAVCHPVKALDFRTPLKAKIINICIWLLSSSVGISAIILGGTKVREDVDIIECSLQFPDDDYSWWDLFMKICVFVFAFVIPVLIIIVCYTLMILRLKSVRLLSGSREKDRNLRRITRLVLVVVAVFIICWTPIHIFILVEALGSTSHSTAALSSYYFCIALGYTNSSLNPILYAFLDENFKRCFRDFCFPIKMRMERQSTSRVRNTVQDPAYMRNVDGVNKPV
# δ2-opioid receptor, sequence (P41143 whole entry): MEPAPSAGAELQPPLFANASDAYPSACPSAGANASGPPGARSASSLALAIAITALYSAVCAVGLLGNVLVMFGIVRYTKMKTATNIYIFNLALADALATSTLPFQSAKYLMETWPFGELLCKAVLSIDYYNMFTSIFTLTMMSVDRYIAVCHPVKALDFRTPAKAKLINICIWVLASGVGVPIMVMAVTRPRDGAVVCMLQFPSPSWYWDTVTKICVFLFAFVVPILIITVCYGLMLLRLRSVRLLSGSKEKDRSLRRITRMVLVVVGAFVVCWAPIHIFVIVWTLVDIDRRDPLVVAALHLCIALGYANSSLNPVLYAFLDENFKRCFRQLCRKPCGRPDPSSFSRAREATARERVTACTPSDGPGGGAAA
# T1 sequence (Q9Z0U4 17-960 limits assumed): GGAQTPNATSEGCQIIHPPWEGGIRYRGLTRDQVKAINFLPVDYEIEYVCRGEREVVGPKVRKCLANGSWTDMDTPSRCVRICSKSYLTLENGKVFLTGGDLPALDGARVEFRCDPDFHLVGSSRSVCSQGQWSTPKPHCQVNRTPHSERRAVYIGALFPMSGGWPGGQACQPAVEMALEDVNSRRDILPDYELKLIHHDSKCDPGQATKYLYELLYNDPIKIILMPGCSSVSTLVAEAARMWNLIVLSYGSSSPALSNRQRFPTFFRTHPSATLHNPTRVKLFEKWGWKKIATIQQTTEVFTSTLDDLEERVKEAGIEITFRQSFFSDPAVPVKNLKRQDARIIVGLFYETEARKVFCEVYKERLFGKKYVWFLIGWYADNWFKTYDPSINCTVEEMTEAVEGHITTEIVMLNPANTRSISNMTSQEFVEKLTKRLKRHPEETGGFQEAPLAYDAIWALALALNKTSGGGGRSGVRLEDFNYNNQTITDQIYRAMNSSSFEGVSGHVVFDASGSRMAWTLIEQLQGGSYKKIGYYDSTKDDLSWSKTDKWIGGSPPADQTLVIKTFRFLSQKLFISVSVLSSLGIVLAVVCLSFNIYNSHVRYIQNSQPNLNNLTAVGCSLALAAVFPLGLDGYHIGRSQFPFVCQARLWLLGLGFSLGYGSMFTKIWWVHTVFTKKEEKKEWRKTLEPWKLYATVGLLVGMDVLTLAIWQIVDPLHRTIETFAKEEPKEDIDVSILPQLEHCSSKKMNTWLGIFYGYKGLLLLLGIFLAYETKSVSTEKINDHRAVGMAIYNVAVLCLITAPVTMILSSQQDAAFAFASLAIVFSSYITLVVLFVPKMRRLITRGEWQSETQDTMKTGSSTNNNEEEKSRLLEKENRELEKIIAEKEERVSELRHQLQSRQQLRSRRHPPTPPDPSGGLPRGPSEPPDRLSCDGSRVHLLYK
# T1 sequence (O88871 41-940 partner): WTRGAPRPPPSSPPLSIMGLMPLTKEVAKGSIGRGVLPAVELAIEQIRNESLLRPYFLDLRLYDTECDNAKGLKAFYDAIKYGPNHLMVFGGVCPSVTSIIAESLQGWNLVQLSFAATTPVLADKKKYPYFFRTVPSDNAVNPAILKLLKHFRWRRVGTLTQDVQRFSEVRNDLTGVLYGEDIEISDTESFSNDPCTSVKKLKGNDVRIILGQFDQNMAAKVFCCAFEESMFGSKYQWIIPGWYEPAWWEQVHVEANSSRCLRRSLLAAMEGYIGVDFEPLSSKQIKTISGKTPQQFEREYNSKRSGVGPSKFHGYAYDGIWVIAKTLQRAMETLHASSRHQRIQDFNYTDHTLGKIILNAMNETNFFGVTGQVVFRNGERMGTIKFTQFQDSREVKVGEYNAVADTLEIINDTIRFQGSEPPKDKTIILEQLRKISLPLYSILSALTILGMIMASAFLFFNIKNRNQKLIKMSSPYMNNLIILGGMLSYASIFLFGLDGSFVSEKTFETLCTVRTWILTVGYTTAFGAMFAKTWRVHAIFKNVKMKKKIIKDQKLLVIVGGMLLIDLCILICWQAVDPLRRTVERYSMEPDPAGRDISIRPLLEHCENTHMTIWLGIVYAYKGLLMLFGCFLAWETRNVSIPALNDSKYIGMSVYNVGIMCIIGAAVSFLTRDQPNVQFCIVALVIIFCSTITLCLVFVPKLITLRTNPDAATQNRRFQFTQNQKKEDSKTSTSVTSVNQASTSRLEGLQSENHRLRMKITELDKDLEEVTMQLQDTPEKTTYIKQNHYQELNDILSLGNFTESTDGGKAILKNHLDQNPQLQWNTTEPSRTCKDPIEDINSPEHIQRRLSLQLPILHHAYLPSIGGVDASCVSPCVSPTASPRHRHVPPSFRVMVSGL
compound,measurement,setting,value
"CC[C@@H]1[C@H]2CCCCN3[C@H]2[C@@H](C[C@H]3[C@@H]2C[C@H](C)C(=O)O2)[C@H]2[C@@H]1OC(=O)[C@H]2C [Compound A, Neotuberostemonine]",Affinity,[1],No
same,% Inhibition of Ligand Binding (average),[1]; duplicate,8.06%
same,Affinity,[2],±
same,% Inhibition of Ligand Binding (average),[2]; duplicate,33.39%
same,Affinity,[3],No
same,% Inhibition of Ligand Binding (average),[3]; duplicate,14.40%
same,cough episodes (result in words),[4]; guinea pig,inhibited citric acid-induced cough in a dose-dependent manner; also recorded: significantly inhibited cough episodes in a dose-dependent manner
same,ED50 value (antitussive),[4]; guinea pig,comparable
same,cough latency,"[4]; doses of 50 and 100 mg/kg, intraperitoneal, guinea pig",significantly increased
same,rank order of antitussive potency,[4],A=D>C≈F≈H≈B
same,% Cough Episode (Composed with Vehicle Control),[4]; [11],16.1 ± 7.3%
same,% Cough Episode (Composed with Vehicle Control),[4]; [12],21.7 ± 8.9%
same,% Antitussive Activity of Compound A,"[5]; with Haloperidol (Dopamine D2 antagonist) 1 mg/kg sc, 45 min pretreatment, compound A ip 50 or 100 mg/kg",115.21 ± 7.05%
same,% Antitussive Activity of Compound A,[5]; with Naloxone (nonselective opioid antagonist) 5 mg/kg sc 20 min after compound A ip (30 and 100 mg/kg),86.51 ± 11.57%
same,% Antitussive Activity of Compound A,"[5]; with SCH 50911 (GABAB antagonist) 10 mg/kg sc, 40 min pretreatment, compound A ip 50 or 100 mg/kg",83.25 ± 16.73%
same,% Antitussive Activity of Compound A,"[5]; with WAY-100635 (5-HT1A antagonist) 1 mg/kg sc, 60 min pretreatment, compound A ip 50 or 100 mg/kg",100.50 ± 1.67%
same,affinity to all receptors examined (in words),[6],did not show any affinity
same,Affinity,[7],No
same,% Inhibition of Ligand Binding (average),[7]; duplicate,8.32%
same,Affinity,[8],No
same,% Inhibition of Ligand Binding (average),[8]; duplicate,−18.42%
same,Affinity,[9],No
same,% Inhibition of Ligand Binding (average),[9]; duplicate,7.37%
same,% Inhibition of Ligand Binding (average),[10]; duplicate,5.95%
same,Affinity,[10],No
"CC[C@@H]1[C@@H]2CCCCN3[C@@H]2[C@@H](C[C@H]3[C@@H]2C[C@H](C)C(=O)O2)[C@H]2[C@@H]1OC(=O)[C@H]2C [Compound B, Tuberostemonine J]",cough episodes (result in words),[4]; guinea pig,marked reduction of cough episodes
same,rank order of antitussive potency,[4],A=D>C≈F≈H≈B
same,% Cough Episode (Composed with Vehicle Control),[4]; [11],76.3 ± 14.7 (ip) %
"CC[C@@H]1[C@H]2CCCCN3[C@@H]2[C@@H](C[C@H]3[C@@H]2C[C@H](C)C(=O)O2)[C@H]2[C@@H]1OC(=O)[C@H]2C [Compound C, Tuberostemonine H]",cough episodes (result in words),[4]; guinea pig,marked reduction of cough episodes
same,rank order of antitussive potency,[4],A=D>C≈F≈H≈B
same,% Cough Episode (Composed with Vehicle Control),[4]; [11],50.7 ± 16.6 (ip) %
"CC[C@@H]1[C@H]2CCCCN3CC[C@@H]([C@H]4[C@@H]1OC(=O)[C@H]4C)[C@@H]23 [Compound D, Neostenine]",cough episodes (result in words),[4]; guinea pig,significantly inhibited cough episodes in a dose-dependent manner
same,rank order of antitussive potency,[4],A=D>C≈F≈H≈B
same,% Cough Episode (Composed with Vehicle Control),[4]; [11],29.9 ± 8.3 (ip) %
"CC[C@H]1[C@H]2OC(=O)[C@@H](C)[C@H]2c2cc([C@H]3C[C@H](C)C(=O)O3)n3c2[C@H]1CCCC3 [Compound E, Epibisdehydrotuberostemonine J]",% Cough Episode (Composed with Vehicle Control),[4]; [12],136.8 ± 25.6 (po) %
"CC[C@@H]1[C@H]2CCCCN3CC[C@@H]([C@H]4[C@@H]1OC[C@H]4C)[C@@H]23 [Compound H, Neostenine-ether]",cough episodes (result in words),[4]; guinea pig,marked reduction of cough episodes
same,rank order of antitussive potency,[4],A=D>C≈F≈H≈B
same,% Cough Episode (Composed with Vehicle Control),[4]; [11],54.4 ± 10.6 (ip) %
"COc1ccc2c3c1O[C@H]1[C@@H](O)C=C[C@H]4[C@@H](C2)N(C)CC[C@@]341 [codeine, reference compound]",ED50 value (antitussive),[4]; guinea pig,comparable
Neostenine-acid [Compound G],% Cough Episode (Composed with Vehicle Control),[4]; [11],104.5 ± 20.4 (ip) %
Neostenine-diol [Compound F],cough episodes (result in words),[4]; guinea pig,marked reduction of cough episodes
same,rank order of antitussive potency,[4],A=D>C≈F≈H≈B
same,% Cough Episode (Composed with Vehicle Control),[4]; [11],62.2 ± 10.8 (ip) %
